Measurements reported in PubChem BioAssay (NCI).
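48-hour exposure; five concentrations; linearly interpolated endpoints. The concentration for full growth arrest is given as TGI.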

Legend:
Assay in all cases: DTP human tumour cell line panel, 48 h
CCRF-CEM leukemia = system: CCRF-CEM leukemia
LOX IMVI melanoma = system: LOX IMVI melanoma
NCI-H23 lung = system: NCI-H23 lung
SNB-75 CNS = system: SNB-75 CNS
SK-MEL-28 melanoma = system: SK-MEL-28 melanoma
HS 578T breast = system: HS 578T breast
SNB-19 CNS = system: SNB-19 CNS
SK-MEL-5 melanoma = system: SK-MEL-5 melanoma
SW-620 colon = system: SW-620 colon
MDA-MB-231 breast = system: MDA-MB-231 breast
SF-268 CNS = system: SF-268 CNS
HCT-15 colon = system: HCT-15 colon
786-0 renal = system: 786-0 renal
MALME-3M melanoma = system: MALME-3M melanoma
SR leukemia = system: SR leukemia
PC-3 prostate = system: PC-3 prostate
TK-10 renal = system: TK-10 renal
CAKI-1 renal = system: CAKI-1 renal
NCI/ADR-RES ovarian = system: NCI/ADR-RES ovarian
OVCAR-3 ovarian = system: OVCAR-3 ovarian
RXF 393 renal = system: RXF 393 renal
ACHN renal = system: ACHN renal
A549 NSCLC = system: A549 NSCLC
SK-MEL-2 melanoma = system: SK-MEL-2 melanoma
MOLT-4 leukemia = system: MOLT-4 leukemia
HL-60(TB) leukemia = system: HL-60(TB) leukemia
U251 CNS = system: U251 CNS
NCI-H226 lung = system: NCI-H226 lung
NCI-H522 lung = system: NCI-H522 lung
NCI-H460 lung = system: NCI-H460 lung
IGROV1 ovarian = system: IGROV1 ovarian
MDA-N = system: MDA-N
SF-539 CNS = system: SF-539 CNS
MCF7 breast = system: MCF7 breast
EKVX NSCLC = system: EKVX NSCLC
SK-OV-3 ovarian = system: SK-OV-3 ovarian
HOP-92 NSCLC = system: HOP-92 NSCLC
HOP-62 NSCLC = system: HOP-62 NSCLC
UO-31 renal = system: UO-31 renal
HCT-116 colon = system: HCT-116 colon
HT29 colon = system: HT29 colon
UACC-257 melanoma = system: UACC-257 melanoma
RPMI-8226 leukemia = system: RPMI-8226 leukemia
COLO 205 colon = system: COLO 205 colon
M14 melanoma = system: M14 melanoma
K-562 leukemia = system: K-562 leukemia
DU-145 prostate = system: DU-145 prostate
OVCAR-4 ovarian = system: OVCAR-4 ovarian
OVCAR-8 ovarian = system: OVCAR-8 ovarian
T-47D breast = system: T-47D breast
SN12C renal = system: SN12C renal
OVCAR-5 ovarian = system: OVCAR-5 ovarian
MDA-MB-435 = system: MDA-MB-435
HCC-2998 colon = system: HCC-2998 colon
SF-295 CNS = system: SF-295 CNS
A498 renal = system: A498 renal
KM12 colon = system: KM12 colon
UACC-62 melanoma = system: UACC-62 melanoma
BT-549 breast = system: BT-549 breast

Measured: TGI

COC(=O)c1ccc2c(c1)CC1(C2)Cc2ccccc2C1=O (configuration not stated)
88.1 µM: EKVX NSCLC
84.8 µM: MDA-MB-231 breast
56.5 µM: CCRF-CEM leukemia
32.6 µM: SK-MEL-5 melanoma
35.2 µM: UACC-257 melanoma
59.8 µM: MDA-N
69.8 µM: SK-MEL-2 melanoma
52.5 µM: MCF7 breast
38.7 µM: SK-MEL-28 melanoma
65.7 µM: SR leukemia
57.4 µM: LOX IMVI melanoma
34.4 µM: MOLT-4 leukemia
38 µM: RPMI-8226 leukemia
82.9 µM: HOP-92 NSCLC
67.3 µM: SNB-75 CNS
68.6 µM: NCI/ADR-RES ovarian
52.7 µM: NCI-H226 lung
36 µM: HT29 colon
69.4 µM: HCT-116 colon
67.1 µM: MALME-3M melanoma
58.5 µM: MDA-MB-435
42.4 µM: COLO 205 colon
38.6 µM: M14 melanoma
56.9 µM: HL-60(TB) leukemia
not listed: KM12 colon | UACC-62 melanoma | BT-549 breast
> 100 µM: all other assays above

COc1ccc(N2C(=O)C(=O)C3(CCCCC3)C2=O)c2ccccc12
not listed: 786-0 renal | OVCAR-3 ovarian | HOP-92 NSCLC | UACC-257 melanoma | BT-549 breast
> 10 µM: all other assays above

COc1cc([C@@H]2c3cc4c(cc3[C@@H](Nc3ccc(Cl)cc3C(=O)c3ccccc3)[C@H]3COC(=O)[C@H]23)OCO4)cc(OC)c1OC
1.09 µM: HL-60(TB) leukemia
> 29.6 µM: NCI-H23 lung
0.918 µM: NCI-H522 lung
7.6 µM: IGROV1 ovarian
5.27 µM: A498 renal
0.669 µM: SF-539 CNS
0.576 µM: U251 CNS
0.926 µM: HS 578T breast
78.4 µM: SK-MEL-28 melanoma
16 µM: SK-MEL-5 melanoma
> 85.1 µM: SNB-19 CNS
> 93.6 µM: MDA-N
not listed: SNB-75 CNS | HCT-15 colon | SR leukemia | PC-3 prostate | RXF 393 renal | NCI-H226 lung | HOP-92 NSCLC | HT29 colon | COLO 205 colon | MDA-MB-435 | HCC-2998 colon | SF-295 CNS | KM12 colon
> 100 µM: all other assays above

Cc1ccc(-c2cn3c(nc4ccccc43)c(/C=C/c3ccco3)n2)cc1
67.7 µM: RPMI-8226 leukemia
89 µM: SR leukemia
72.9 µM: SK-MEL-2 melanoma
84.2 µM: HS 578T breast
not listed: CCRF-CEM leukemia | PC-3 prostate | CAKI-1 renal | MOLT-4 leukemia | NCI-H522 lung | EKVX NSCLC | OVCAR-8 ovarian | SF-295 CNS
> 100 µM: all other assays above
